# Assay results as given in US20240228458A1, “PYRIMIDINE DERIVATIVE HAVING PROTEIN KINASE INHIBITORY ACTIVITY, AND THERAPEUTIC PHARMACEUTICAL COMPOSITION COMPRISING SAME” (THERAPEX CO., LTD., priority 2021, published 2024).
# How the values were obtained:
# Type in all cases: cell-based
# [1] = system: Ba/F3 cells expressing del19/T790M/C797S (EGFR-DTC); assay: Growth inhibition (GI50) of Ba/F3 cells expressing del19/T790M/C797S (EGFR-DTC), Celltiter glo; settings: Mus musculus, BaF3, 72 h
# In short: (§1)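 Viability read by CellTiter-Glo after 72 h compound exposure (37 °C, 5% CO2) of variant-expressing Ba/F3 cells plated at 100,000 cells/ml. Dosing 4 h post-seeding; 10-pt 4-fold series from 2 mM stock; 0.5% DMSO. GI50 = molar concentration (μM) giving half-maximal growth inhibition.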
# [2] = system: Ba/F3 cells expressing L858R/T790M/C797S (EGFR-LTC); assay: Growth inhibition (GI50) of Ba/F3 cells expressing L858R/T790M/C797S (EGFR-LTC), Celltiter glo; settings: Mus musculus, BaF3, 72 h
# In short: as §1
# parental Ba/F3 cell line = assay: Growth inhibition (GI50) of the parental Ba/F3 cell line (not introduced with EGFR variants), Celltiter glo; settings: Mus musculus, BaF3, 72 h, parental Ba/F3 cells
# In short: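 Viable cell count by CellTiter-Glo after 72 h at 37 °C gave GI50 values (μM, 50% growth inhibition). Cells lacking EGFR variants were seeded at 100,000 cells/ml and dosed 4 h later with 4-fold serial dilutions from a 2 mM stock, 0.5% DMSO.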
# [3] = system: Ba/F3 cells expressing EGFR-wt; assay: Growth inhibition (GI50) of Ba/F3 cells expressing EGFR-wt, Celltiter glo; settings: Mus musculus, BaF3, 72 h
# In short: as §1
SMILES,GI50 [1] [nM],GI50 [2] [nM],GI50 (parental Ba/F3 cell line) [nM],GI50 [3] [nM]
"CN1CCN(C2CCN(c3ccc4cc(Nc5ncc(Cl)c(Nc6cc(Cl)c(Cl)cc6NS(C)(=O)=O)n5)ccc4n3)CC2)CC1 [Example 102, N-(4,5-dichloro-2-((5-chloro-2-((2-(4-(4-methylpiperazin-1-yl)piperidin-1-yl)quinolin-6-yl)amino)pyrimidin-4-yl)amino)phenyl)methanesulfonamide]",500 to 2000,100 to 500,2000 to 10000,500 to 2000
COc1cc(N2CCC(N3CCN(C)CC3)CC2)c(Cl)cc1Nc1ncc(Cl)c(Nc2cc(Cl)c(Cl)cc2NS(C)(=O)=O)n1 [Example 103],100 to 500,25 to 100,2000 to 10000,500 to 2000
"COc1cc(N2CCC(N(C)CCN(C)C)CC2)c(C)cc1Nc1ncc(Cl)c(Nc2cc(Cl)c(Cl)cc2NS(C)(=O)=O)n1 [Example 104, N-(4,5-dichloro-2-((5-chloro-2-((4-(4-((2-(dimethylamino)ethyl)(methyl)amino)piperidin-1-yl)-2-methoxy-5-methylphenyl)amino)pyrimidin-4-yl)amino)phenyl)methanesulfonamide]",500 to 2000,500 to 2000,500 to 2000,500 to 2000
"COc1cc(N(C)CCCN2CCN(C)CC2)c(C)cc1Nc1ncc(Cl)c(Nc2cc(Cl)c(Cl)cc2NS(C)(=O)=O)n1 [Example 105, N-(4,5-dichloro-2-((5-chloro-2-((2-methoxy-5-methyl-4-(methyl(3-(4-methylpiperazin-1-yl)propyl)amino)phenyl)amino)pyrimidin-4-yl)amino)phenyl)methanesulfonamide]",> 10000,> 10000,> 10000,> 10000
"COc1cc(N2CCC(N3CCN(C)CC3)CC2)c(C)cc1Nc1ncc(Br)c(Nc2cc(C)ccc2NS(C)(=O)=O)n1 [Example 106, N-(2-((5-bromo-2-((2-methoxy-5-methyl-4-(4-(4-methylpiperazin-1-yl)piperidin-1-yl)phenyl)amino)pyrimidin-4-yl)amino)-4-methylphenyl)methanesulfonamide]",1 to 25,25 to 100,500 to 2000,500 to 2000
"COc1cc(N2CCC(N3CCN(C)CC3)CC2)c(Cl)cc1Nc1ncc(Br)c(Nc2cc(C)ccc2NS(C)(=O)=O)n1 [Example 107, N-(2-((5-bromo-2-((5-chloro-2-methoxy-4-(4-(4-methylpiperazin-1-yl)piperidin-1-yl)phenyl)amino)pyrimidin-4-yl)amino)-4-methylphenyl)methanesulfonamide]",25 to 100,100 to 500,500 to 2000,500 to 2000
COc1cc(N2CCC(N3CCN(C)CC3)CC2)c(F)cc1Nc1ncc(Br)c(Nc2cc(C)ccc2NS(C)(=O)=O)n1 [Example 108],25 to 100,100 to 500,2000 to 10000,500 to 2000
"Cc1ccc(NS(C)(=O)=O)c(Nc2nc(Nc3cc(C)c(N4CCC(N5CCN(C)CC5)CC4)cc3Cl)ncc2Br)c1 [Example 109, N-(2-((5-bromo-2-((2-chloro-5-methyl-4-(4-(4-methylpiperazin-1-yl)piperidin-1-yl)phenyl)amino)pyrimidin-4-yl)amino)-4-methylphenyl)methanesulfonamide]",25 to 100,1 to 25,500 to 2000,100 to 500
"COc1cc(N2CCC(N3CCN(C)CC3)CC2)c(C)cc1Nc1ncc(Cl)c(N(c2ccc3scnc3c2NS(C)(=O)=O)S(C)(=O)=O)n1 [Example 110, N-(5-chloro-2-((2-methoxy-5-methyl-4-(4-(4-methylpiperazin-1-yl)piperidin-1-yl)phenyl)amino)pyrimidin-4-yl)-N-(4-(methylsulfonamido)benzo[d]thiazol-5-yl)methanesulfonamide]",100 to 500,25 to 100,500 to 2000,100 to 500
"CN1CCN(C2CCN(c3ccc(Nc4ncc(Cl)c(N(c5ccc6scnc6c5NS(C)(=O)=O)S(C)(=O)=O)n4)cc3F)CC2)CC1 [Example 112, N-(5-chloro-2-((3-fluoro-4-(4-(4-methylpiperazin-1-yl)piperidin-1-yl)phenyl)amino)pyrimidin-4-yl)-N-(4-(methylsulfonamido)benzo[d]thiazol-5-yl)methanesulfonamide]",25 to 100,25 to 100,100 to 500,100 to 500
"CN1CCN(C2CCN(c3ncc(Nc4ncc(Cl)c(N(c5ccc6scnc6c5NS(C)(=O)=O)S(C)(=O)=O)n4)cc3F)CC2)CC1 [Example 113, N-(5-chloro-2-((5-fluoro-6-(4-(4-methylpiperazin-1-yl)piperidin-1-yl)pyridin-3-yl)amino)pyrimidin-4-yl)-N-(4-(methylsulfonamido)benzo[d]thiazol-5-yl)methanesulfonamide]",500 to 2000,500 to 2000,2000 to 10000,2000 to 10000
"COc1cc(N2CCC(N3CCN(C)CC3)CC2)c(Cl)cc1Nc1ncc(Cl)c(N(c2ccc3scnc3c2NS(C)(=O)=O)S(C)(=O)=O)n1 [Example 114, N-(5-chloro-2-((5-chloro-2-methoxy-4-(4-(4-methylpiperazin-1-yl)piperidin-1-yl)phenyl)amino)pyrimidin-4-yl)-N-(4-(methylsulfonamido)benzo[d]thiazol-5-yl)methanesulfonamide]",100 to 500,100 to 500,500 to 2000,500 to 2000
"COc1nc(N2CCC(N3CCN(C)CC3)CC2)c(C)cc1Nc1ncc(Cl)c(Nc2ccc3ncccc3c2NS(C)(=O)=O)n1 [Example 116, N-(6-((5-chloro-2-((2-methoxy-5-methyl-6-(4-(4-methylpiperazin-1-yl)piperidin-1-yl)pyridin-3-yl)amino)pyrimidin-4-yl)amino)quinolin-5-yl)methanesulfonamide]",25 to 100,100 to 500,2000 to 10000,500 to 2000
"COc1nc(N2CCC(N3CCOCC3)CC2)ccc1Nc1ncc(Cl)c(Nc2ccc3ncccc3c2NS(C)(=O)=O)n1 [Example 117, N-(6-((5-chloro-2-((2-methoxy-6-(4-morpholinopiperidin-1-yl)pyridin-3-yl)amino)pyrimidin-4-yl)amino)quinolin-5-yl)methanesulfonamide]",500 to 2000,500 to 2000,2000 to 10000,500 to 2000
COc1cc(N2CCC(N3CCN(C)CC3)CC2)c(Cl)cc1Nc1ncc(Cl)c(Nc2ccc3ncccc3c2NS(C)(=O)=O)n1 [Example 118],100 to 500,100 to 500,> 10000,500 to 2000
"COc1cc(N2CCN(C)CC2)ccc1Nc1ncc(Cl)c(Nc2ccc3ncccc3c2NS(C)(=O)=O)n1 [Example 119, N-(6-((5-chloro-2-((2-methoxy-4-(4-methylpiperazin-1-yl)phenyl)amino)pyrimidin-4-yl)amino)quinolin-5-yl)methanesulfonamide]",500 to 2000,500 to 2000,2000 to 10000,500 to 2000
"COc1cc(N2CCC(N3CCN(C)CC3)CC2)c(C)cc1Nc1ncc(Cl)c(N(C)c2ccccc2NS(C)(=O)=O)n1 [Example 120, N-(2-((5-chloro-2-((2-methoxy-5-methyl-4-(4-(4-methylpiperazin-1-yl)piperidin-1-yl)phenyl)amino)pyrimidin-4-yl)(methyl)amino)phenyl)methanesulfonamide]",2000 to 10000,2000 to 10000,> 10000,2000 to 10000
"COc1nc(N2CCC(N3CCN(C)CC3)CC2)c(C)cc1Nc1ncc(Cl)c(N(C)c2ccccc2NS(C)(=O)=O)n1 [Example 121, N-(2-((5-chloro-2-((2-methoxy-5-methyl-6-(4-(4-methylpiperazin-1-yl)piperidin-1-yl)pyridin-3-yl)amino)pyrimidin-4-yl)(methyl)amino)phenyl)methanesulfonamide]",2000 to 10000,2000 to 10000,> 10000,2000 to 10000
"COc1nc(N2CCC(N3CCN(C)CC3)CC2)c(C)cc1Nc1ncc(Cl)c(Nc2ccc3nccnc3c2P(C)(C)=O)n1 [Example 122, (6-((5-chloro-2-((2-methoxy-5-methyl-6-(4-(4-methylpiperazin-1-yl)piperidin-1-yl)pyridin-3-yl)amino)pyrimidin-4-yl)amino)quinoxalin-5-yl)dimethylphosphine oxide]",100 to 500,25 to 100,500 to 2000,100 to 500
"COc1nc(N2CCC(N3CCN(C)CC3)CC2)ccc1Nc1ncc(Cl)c(Nc2ccc3nccnc3c2P(C)(C)=O)n1 [Example 123, (6-((5-chloro-2-((2-methoxy-6-(4-(4-methylpiperazin-1-yl)piperidin-1-yl)pyridin-3-yl)amino)pyrimidin-4-yl)amino)quinoxalin-5-yl)dimethylphosphine oxide]",100 to 500,100 to 500,2000 to 10000,500 to 2000
"CN1CCN(C2CCN(c3ncc(Nc4ncc(Cl)c(Nc5ccc6nccnc6c5P(C)(C)=O)n4)cc3F)CC2)CC1 [Example 124, (6-((5-chloro-2-((5-fluoro-6-(4-(4-methylpiperazin-1-yl)piperidin-1-yl)pyridin-3-yl)amino)pyrimidin-4-yl)amino)quinoxalin-5-yl)dimethylphosphine oxide]",25 to 100,25 to 100,100 to 500,100 to 500
